Measured values as given in ChEMBL document CHEMBL4043290, “Structure-based Design of Pyridone-Aminal eFT508 Targeting Dysregulated Translation by Selective Mitogen-activated Protein Kinase Interacting Kinases 1 and 2 (MNK1/2) Inhibition” (J Med Chem, 2018).
Active and inactive are the calls of the source. No cut-off for these calls is given here.

How the values were obtained:
[1] = Metabolic stability in rat liver microsomes assessed as parent compound remaining at 1 uM after 30 mins by LC-ESI-TOF/MS method; format: ADME, microsome; conditions: read-out: Stability
[2] = Antiproliferative activity against human B-ALL cells after 72 hrs by CellTiter-Glo assay; format: functional, cell-based
TMD8 [3] = experiment: Effect on 4E-BP1 expression in human TMD8 cells after 2 hrs by immunoblot method; format: functional, cell-based
[4] = biological target: T1, MAP kinase-interacting serine/threonine-protein kinase 1/2 (Homo sapiens, UniProt Q9HBH9+Q9BUB5); experiment: Inhibition of MNK1/2 in human TMD8 cells assessed as decrease in IL-8 levels after 48 hrs by ELISA; format: cell-based
[5] = Antitumor activity against human HBL1 cells xenografted in NOD SCID mouse assessed as tumor growth inhibition at 10 mg/kg, po qd administered for 12 days relative to control; format: functional; conditions: 288 h, read-out: TGI
MDA-MB-231 [6] = experiment: Growth inhibition of human MDA-MB-231 cells after 72 hrs by CellTiter-Glo assay; format: functional, cell-based
Mus musculus [7] = experiment: In vivo inhibition of MNK1/2 in human TMD8 cells xenografted in NOD SCID mouse assessed as reduction in eIF4E phosphorylation at Ser209 administered as po qd for 14 days measured over 24 hrs post last dose by Western blot method; format: functional, organism-based
[8] = Therapeutic index, ratio of tumor growth inhibition of human TMD8 cells xenografted in NOD SCID mouse to body weight loss in NOD SCID mouse xenografted with human TMD8 cells
Homo sapiens = species on record: Homo sapiens; experiment: Effect on MAPK phosphorylation at Thr202/Tyr204 in human TMD8 cells at 0.01 to 10 uM after 2 hrs by immunoblot method; format: cell-based
TMD8 [9] = experiment: Antitumor activity against human TMD8 cells xenografted in NOD SCID mouse assessed as tumor growth inhibition at 1 mg/kg, po qd administered for 14 days relative to control; format: functional; conditions: 336 h, read-out: TGI
[10] = Oral bioavailability in Beagle dog at 3 mg/kg by LC-ESI-TOF/MS or LC-ESI-MS/MS method; format: ADME, organism-based, Canis lupus familiaris; conditions: in vivo
[11] = Antiproliferative activity against human T-ALL cells after 72 hrs by CellTiter-Glo assay; format: functional, cell-based
[12] = biological target: Eukaryotic translation initiation factor 4E-binding protein 1 (Homo sapiens) (UniProt Q13541); experiment: Effect on 4E-BP1 phosphorylation at Thr37/46 in human TMD8 cells at 0.01 to 10 uM after 2 hrs by immunoblot method; format: cell-based
[13] = Metabolic stability in human liver microsomes assessed as parent compound remaining at 1 uM after 30 mins by LC-ESI-TOF/MS method; format: ADME, microsome; conditions: read-out: Stability
[14] = Protein binding in human plasma; format: ADME, cell-free; conditions: read-out: PPB
[15] = biological target: T1, MAP kinase-interacting serine/threonine-protein kinase 1/2; experiment: Inhibition of MNK1/2 in human TMD8 cells assessed as decrease in TNF-alpha levels after 48 hrs by ELISA; format: cell-based
[16] = Antiproliferative activity against human ALCL cells after 72 hrs by CellTiter-Glo assay; format: functional, cell-based
physchem = conditions: octanol/water
[17] = Antiproliferative activity against human multiple myeloma cells after 72 hrs by CellTiter-Glo assay; format: functional, cell-based; conditions: Multiple myeloma cell
[18] = Antiproliferative activity against human CML cells after 72 hrs by CellTiter-Glo assay; format: functional, cell-based
[19] = Antiproliferative activity against human MCL cells after 72 hrs by CellTiter-Glo assay; format: functional, cell-based
Mus musculus [20] = experiment: Toxicity in NCr nu/nu mouse xenografted with human MDA-MB-231 cells assessed as body weight loss at 1 to 10 mg/kg, po qd administered for 23 days measured twice a week during compound dosing; format: organism-based; conditions: in vivo, 552 h
Mus musculus [21] = experiment: Toxicity in NOD SCID mouse xenografted with human HBL1 cells assessed as body weight loss at 1 to 10 mg/kg, po qd administered for 12 days measured twice a week during compound dosing; format: organism-based; conditions: in vivo, 288 h
[22] = biological target: T1, MAP kinase-interacting serine/threonine-protein kinase 1/2; experiment: Inhibition of MNK1/2 in human TMD8 cells assessed as decrease in IL-8 mRNA half life at 10 uM incubated for 24 hrs by TaqMan assay relative to control; format: cell-based
[23] = biological target: T1, MAP kinase-interacting serine/threonine-protein kinase 1/2; experiment: Inhibition of MNK1/2 in human TMD8 cells assessed as decrease in TNF-alpha mRNA half life at 10 uM incubated for 24 hrs by TaqMan assay relative to control; format: cell-based
TMD8 [24] = experiment: Antitumor activity against human TMD8 cells xenografted in NOD SCID mouse assessed as tumor growth inhibition at 10 mg/kg, po qd administered for 14 days relative to control; format: functional; conditions: 336 h, read-out: TGI
[25] = Antiproliferative activity against human AML cells after 72 hrs by CellTiter-Glo assay; format: functional, cell-based
Mus musculus [26] = experiment: In vivo inhibition of MNK1/2 in human TMD8 cells xenografted in NOD SCID mouse assessed as reduction in eIF4E phosphorylation at Ser209 at 1 mg/kg, po qd administered for 14 days measured over 8 hrs post last dose by Western blot method relative to control; format: functional
[27] = biological target: Serine/threonine-protein kinase 17A (Homo sapiens, UniProt Q9UEE5); experiment: Inhibition of DRAK1 (unknown origin)
[28] = Antiproliferative activity against human Burkitt lymphoma cells after 72 hrs by CellTiter-Glo assay; format: functional, cell-based; conditions: Burkitt lymphoma cell
[29] = Protein binding in monkey plasma; format: ADME, cell-free, Macaca mulatta; conditions: rhesus monkey, read-out: PPB
Mus musculus [30] = experiment: Toxicity in NOD SCID mouse xenografted with human TMD8 cells assessed as body weight loss at 1 to 10 mg/kg, po qd administered for 14 days measured twice a week during compound dosing; format: organism-based; conditions: in vivo, 336 h
[31] = Protein binding in mouse plasma; format: ADME, cell-free; conditions: read-out: PPB
in vitro = conditions: human, Caco-2
[32] = biological target: Dual specificity protein kinase CLK4 (Homo sapiens, UniProt Q9HAZ1); experiment: Inhibition of CLK4 (unknown origin)
MDA-MB-231 [33] = experiment: Antitumor activity against human MDA-MB-231 cells xenografted in NCr nu/nu mouse assessed as tumor growth inhibition at 1 to 10 mg/kg, po qd administered for 23 days relative to control; format: functional
[34] = Antiproliferative activity against human DLBCL cells after 72 hrs by CellTiter-Glo assay; format: functional, cell-based
[35] = biological target: T1, MAP kinase-interacting serine/threonine-protein kinase 1/2; experiment: Inhibition of MNK1/2 in human TMD8 cells assessed as decrease in IL-6 levels after 48 hrs by ELISA; format: cell-based
[36] = Protein binding in rat plasma; format: ADME, cell-free; conditions: read-out: PPB
[37] = biological target: T1, MAP kinase-interacting serine/threonine-protein kinase 1/2; experiment: Inhibition of MNK1/2 in human TMD8 cells assessed as decrease in eIF4E phosphorylation at Ser209 after 2 hrs by immunoblot method; format: cell-based
[38] = Metabolic stability in mouse liver microsomes assessed as parent compound remaining at 1 uM after 30 mins by LC-ESI-TOF/MS method; format: ADME, microsome; conditions: read-out: Stability
[39] = Therapeutic index, ratio of tumor growth inhibition of human HBL1 cells xenografted in NOD SCID mouse to body weight loss in NOD SCID mouse xenografted with human HBL1 cells
[40] = Protein binding in dog plasma; format: ADME, cell-free, Canis lupus familiaris; conditions: read-out: PPB
[41] = Antitumor activity against human HBL1 cells xenografted in NOD SCID mouse assessed as tumor growth inhibition at 1 mg/kg, po qd administered for 12 days relative to control; format: functional; conditions: 288 h, read-out: TGI
[42] = Oral bioavailability in Sprague-Dawley rat at 10 mg/kg by LC-ESI-TOF/MS or LC-ESI-MS/MS method; format: ADME, organism-based; conditions: in vivo
[43] = Therapeutic index, ratio of tumor growth inhibition of human MDA-MB-231 cells xenografted in NCr nu/nu mouse to body weight loss in NCr nu/nu mouse xenografted with human MDA-MB-231 cells
[44] = biological target: T1, MAP kinase-interacting serine/threonine-protein kinase 1/2; experiment: Inhibition of MNK1/2 in human TMD8 cells assessed as decrease in IL-6 mRNA half life at 10 uM incubated for 24 hrs by TaqMan assay relative to control; format: cell-based
[45] = Antiproliferative activity against human B-PLL cells after 72 hrs by CellTiter-Glo assay; format: functional, cell-based
[46] = Oral bioavailability in Balb/c mouse at 10 mg/kg by LC-ESI-TOF/MS or LC-ESI-MS/MS method; format: ADME, organism-based; conditions: in vivo
[47] = Oral bioavailability in cynomolgus monkey at 3 mg/kg by LC-ESI-TOF/MS or LC-ESI-MS/MS method; format: ADME, organism-based, Macaca fascicularis; conditions: in vivo

Chain of Serine/threonine-protein kinase 17A (Q9UEE5 whole entry): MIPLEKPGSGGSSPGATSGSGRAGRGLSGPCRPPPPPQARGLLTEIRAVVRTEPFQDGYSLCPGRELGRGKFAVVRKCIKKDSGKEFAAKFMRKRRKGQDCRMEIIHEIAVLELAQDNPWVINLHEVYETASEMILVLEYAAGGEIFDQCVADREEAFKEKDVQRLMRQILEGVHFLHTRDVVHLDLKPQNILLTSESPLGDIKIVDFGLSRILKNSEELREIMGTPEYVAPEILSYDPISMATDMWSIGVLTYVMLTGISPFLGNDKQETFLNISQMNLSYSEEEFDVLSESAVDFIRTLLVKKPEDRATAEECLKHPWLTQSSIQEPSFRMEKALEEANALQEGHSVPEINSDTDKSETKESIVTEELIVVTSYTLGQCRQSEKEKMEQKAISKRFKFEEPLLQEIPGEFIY
Chain of Eukaryotic translation initiation factor 4E-binding protein 1 (Homo sapiens) (Q13541 whole entry): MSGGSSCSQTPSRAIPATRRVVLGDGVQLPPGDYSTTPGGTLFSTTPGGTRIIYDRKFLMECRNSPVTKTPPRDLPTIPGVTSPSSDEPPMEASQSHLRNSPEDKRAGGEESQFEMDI
Chain of Dual specificity protein kinase CLK4 (Q9HAZ1 whole entry): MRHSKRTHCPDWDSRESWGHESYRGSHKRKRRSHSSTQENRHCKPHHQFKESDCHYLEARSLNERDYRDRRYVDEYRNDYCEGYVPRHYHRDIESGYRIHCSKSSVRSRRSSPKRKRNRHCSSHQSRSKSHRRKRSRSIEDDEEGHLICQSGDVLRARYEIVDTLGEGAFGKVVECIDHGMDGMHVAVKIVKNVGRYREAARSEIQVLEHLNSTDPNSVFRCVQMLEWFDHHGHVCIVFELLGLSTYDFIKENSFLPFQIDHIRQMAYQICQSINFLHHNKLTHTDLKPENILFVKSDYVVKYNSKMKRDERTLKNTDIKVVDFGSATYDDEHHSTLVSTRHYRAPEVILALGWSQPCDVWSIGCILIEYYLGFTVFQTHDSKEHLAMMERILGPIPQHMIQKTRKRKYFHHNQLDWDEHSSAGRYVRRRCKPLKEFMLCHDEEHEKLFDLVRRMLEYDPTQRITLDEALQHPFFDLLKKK

Cc1cc(Nc2cc(N)ncn2)c(=O)n2c1C(=O)NC21CCCCC1 [TOMIVOSERTIB]
remaining at 0.5 h, 1 µM [1]: 93%
IC50 [2]: > 30 µM
Activity (TMD8 [3]): inactive
inhibition [4]: Dose-dependent effect
inhibition in vivo at 10 mg/kg [5]: 96%
growth inhibition (GI) (MDA-MB-231 [6]): inactive
IC90 (Mus musculus [7]): 0.376 µM
IC50 (Mus musculus [7]; Mus musculus, TMD8): 0.0158 µM
TI [8]: >=10
Activity (Homo sapiens): inactive
inhibition in vivo at 1 mg/kg (TMD8 [9]): 71%
bioavailability [10]: > 100%
IC50 [11]: > 30 µM
Activity [12]: inactive
remaining at 0.5 h, 1 µM [13]: 87%
fraction unbound [14]: 0.5
inhibition [15]: Dose-dependent effect
IC50 [16]: > 30 µM
logP (physchem): 2.7
IC50 [17]: < 10 µM
IC50 [18]: > 30 µM
IC50 [19]: > 30 µM
Activity (Mus musculus [20]): Non-Toxic
Activity (Mus musculus [21]): Non-Toxic
fold change (FC) [22]: 1.5 to 2
fold change (FC) [23]: 1.5 to 2
inhibition in vivo at 10 mg/kg (TMD8 [24]): 75%
IC50 [25]: > 30 µM
inhibition in vivo at 1 mg/kg (Mus musculus [26]): 80%
IC50 [27]: 0.131 µM
IC50 [28]: > 30 µM
fraction unbound [29]: 0.5
Activity (Mus musculus [30]): Non-Toxic
fraction unbound [31]: 0.5
Papp A→B at 2 h, 5 µM (in vitro): 7.1 ×10⁻⁶ cm/s
IC50 [32]: 0.787 µM
TGI (MDA-MB-231 [33]): >100%
IC50 [34]: < 10 µM
inhibition [35]: Dose-dependent effect
fraction unbound [36]: 0.5
inhibition [37]: Dose-dependent effect
remaining at 0.5 h, 1 µM [38]: 90%
TI [39]: >=10
fraction unbound [40]: 0.5
inhibition in vivo at 1 mg/kg [41]: 66%
bioavailability [42]: 85%
TI [43]: >=10
fold change (FC) [44]: 1.5 to 2
IC50 [45]: > 30 µM
bioavailability [46]: 79%
bioavailability [47]: 24%
